Assay results as given in patent US12365696B2, “Small-molecule focal adhesion kinase (FAK) inhibitors” (DANA-FARBER CANCER INSTITUTE, INC., priority 2019, dated 2025).
Like-named read-outs stand apart in the source and are kept apart here.

Key:
Assay in all cases: KINOMEscan
Format in all cases: binding
[1] = target: PRKCI (Homo sapiens (Human), UniProt P41743); conditions: 10000 nM, read-out: Percent Control
[2] = target: RET(V804M) (Homo sapiens (Human), UniProt P07949, V804M); conditions: 10000 nM, read-out: Percent Control
[3] = target: NEK9 (Homo sapiens (Human), UniProt Q8TD19); conditions: NEK9, 10000 nM; read-out: Percent Control
[4] = target: PRKX (Homo sapiens (Human), UniProt P51817); conditions: 10000 nM, read-out: Percent Control
[5] = target: PIK3CB (Homo sapiens (Human), UniProt P42338); conditions: 10000 nM, read-out: Percent Control
[6] = target: CDK7 (Homo sapiens (Human), UniProt P50613); conditions: CDK7, 10000 nM; read-out: Percent Control
[7] = target: MAP4K3 (Homo sapiens (Human), UniProt Q8IVH8); conditions: MAP4K3, 10000 nM; read-out: Percent Control
[8] = target: WNK1 (Homo sapiens (Human), UniProt Q9H4A3); conditions: WNK1, 10000 nM; read-out: Percent Control
[9] = target: PIK3CA(C420R) (Homo sapiens (Human), UniProt P42336, C420R); conditions: 10000 nM, read-out: Percent Control
[10] = target: MLK3 (Homo sapiens (Human), UniProt Q16584); conditions: MLK3, 10000 nM; read-out: Percent Control
[11] = target: KIT(V5S9D, V654A) (Homo sapiens (Human), UniProt P10721, V559D/V654A); conditions: 10000 nM, read-out: Percent Control
[12] = target: PIK3CA(E542K) (Homo sapiens (Human), UniProt P42336, E542K); conditions: 10000 nM, read-out: Percent Control
[13] = target: CLK2 (Homo sapiens (Human), UniProt P49760); conditions: CLK2, 10000 nM; read-out: Percent Control
[14] = target: MYO3B (Homo sapiens (Human), UniProt Q8WXR4); conditions: 10000 nM, read-out: Percent Control
[15] = target: CAMK1 (Homo sapiens (Human), UniProt Q14012); conditions: CAMK1, 10000 nM; read-out: Percent Control
[16] = target: IKK-epsilon (Homo sapiens (Human), UniProt Q14164); conditions: 10000 nM, read-out: Percent Control
[17] = target: PCTK2 (Homo sapiens (Human), UniProt Q00537); conditions: PCTK2, 10000 nM; read-out: Percent Control
[18] = target: EGFR (Homo sapiens (Human), UniProt P00533); conditions: 10000 nM, read-out: Percent Control
[19] = target: TNNI3K (Homo sapiens (Human), UniProt Q59H18); conditions: 10000 nM, read-out: Percent Control
[20] = target: ABL1-nonphosphorylated (Homo sapiens (Human), UniProt P00519); conditions: 10000 nM, read-out: Percent Control
[21] = target: MARK3 (Homo sapiens (Human), UniProt P27448); conditions: MARK3, 10000 nM; read-out: Percent Control
[22] = target: TRPM6 (Homo sapiens (Human), UniProt Q9BX84); conditions: TRPM6, 10000 nM; read-out: Percent Control
[23] = target: CSNK1A1 (Homo sapiens (Human), UniProt P48729); conditions: CSNK1A1, 10000 nM; read-out: Percent Control
[24] = target: PFPK5(P. falciparum) (Plasmodium falciparum (isolate 3D7), UniProt P61075); conditions: 10000 nM, read-out: Percent Control
[25] = target: MEK3 (Homo sapiens (Human), UniProt P46734); conditions: MEK3, 10000 nM; read-out: Percent Control
[26] = target: CTK (Homo sapiens (Human), UniProt P42679); conditions: 10000 nM, read-out: Percent Control
[27] = target: FLT3(D835Y) (Homo sapiens (Human), UniProt P36888, D835Y); conditions: 10000 nM, read-out: Percent Control
[28] = target: CSNK1E (Homo sapiens (Human), UniProt P49674); conditions: 10000 nM, read-out: Percent Control
[29] = target: ABL1(F317L)-phosphorylated (Homo sapiens (Human), UniProt P00519, F317L); conditions: 10000 nM, read-out: Percent Control
[30] = target: PAK7 (Homo sapiens (Human), UniProt Q9P286); conditions: PAK7, 10000 nM; read-out: Percent Control
[31] = target: BMPR2 (Homo sapiens (Human), UniProt Q13873); conditions: BMPR2, 10000 nM; read-out: Percent Control
[32] = target: EPHA1 (Homo sapiens (Human), UniProt P21709); conditions: EPHA1, 10000 nM; read-out: Percent Control
[33] = target: MEK4 (Homo sapiens (Human), UniProt P45985); conditions: MEK4, 10000 nM; read-out: Percent Control
[34] = target: PIP5K2C (Homo sapiens (Human), UniProt Q8TBX8); conditions: 10000 nM, read-out: Percent Control
[35] = target: HASPIN (Homo sapiens (Human), UniProt Q8TF76); conditions: 10000 nM, read-out: Percent Control

Sequence of RET(V804M) (P07949 29-1114 V804M): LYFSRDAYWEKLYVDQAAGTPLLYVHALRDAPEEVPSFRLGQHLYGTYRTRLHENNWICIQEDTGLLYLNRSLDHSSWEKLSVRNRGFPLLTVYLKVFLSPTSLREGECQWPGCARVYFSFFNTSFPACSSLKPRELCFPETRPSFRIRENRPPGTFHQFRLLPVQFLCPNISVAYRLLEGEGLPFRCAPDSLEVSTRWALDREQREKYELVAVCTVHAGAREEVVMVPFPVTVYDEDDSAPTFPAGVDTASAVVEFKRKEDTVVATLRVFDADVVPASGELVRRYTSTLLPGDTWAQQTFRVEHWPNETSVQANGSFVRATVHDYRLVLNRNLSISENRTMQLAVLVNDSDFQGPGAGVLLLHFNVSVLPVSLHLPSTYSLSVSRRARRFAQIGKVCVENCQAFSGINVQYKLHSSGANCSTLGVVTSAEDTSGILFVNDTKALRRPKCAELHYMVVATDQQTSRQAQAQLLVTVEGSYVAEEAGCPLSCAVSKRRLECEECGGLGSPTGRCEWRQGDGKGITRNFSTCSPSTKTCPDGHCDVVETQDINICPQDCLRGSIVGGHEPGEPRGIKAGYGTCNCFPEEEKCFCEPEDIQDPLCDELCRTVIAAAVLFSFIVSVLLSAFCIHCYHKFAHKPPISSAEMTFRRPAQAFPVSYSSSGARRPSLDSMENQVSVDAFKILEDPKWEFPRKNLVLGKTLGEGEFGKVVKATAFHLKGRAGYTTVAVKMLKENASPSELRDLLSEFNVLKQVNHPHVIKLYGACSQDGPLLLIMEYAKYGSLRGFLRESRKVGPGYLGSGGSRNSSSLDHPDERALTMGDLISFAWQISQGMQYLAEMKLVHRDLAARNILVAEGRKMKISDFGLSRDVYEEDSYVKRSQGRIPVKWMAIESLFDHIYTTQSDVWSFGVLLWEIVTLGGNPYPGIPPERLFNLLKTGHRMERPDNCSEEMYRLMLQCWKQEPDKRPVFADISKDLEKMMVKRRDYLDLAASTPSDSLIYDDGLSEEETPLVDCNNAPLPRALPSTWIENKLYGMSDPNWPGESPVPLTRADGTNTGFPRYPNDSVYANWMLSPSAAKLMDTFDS
Sequence of CAMK1 (Q14012 whole entry): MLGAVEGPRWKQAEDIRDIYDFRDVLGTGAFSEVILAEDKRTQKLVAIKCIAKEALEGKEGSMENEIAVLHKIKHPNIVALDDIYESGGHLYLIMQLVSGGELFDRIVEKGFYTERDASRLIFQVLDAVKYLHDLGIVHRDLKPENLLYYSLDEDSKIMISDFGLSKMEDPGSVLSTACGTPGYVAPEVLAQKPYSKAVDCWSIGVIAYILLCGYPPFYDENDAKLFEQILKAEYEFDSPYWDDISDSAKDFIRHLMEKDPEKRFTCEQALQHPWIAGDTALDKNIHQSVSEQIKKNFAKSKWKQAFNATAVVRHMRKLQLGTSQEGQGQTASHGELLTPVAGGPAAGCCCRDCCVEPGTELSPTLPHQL
Sequence of TNNI3K (Q59H18 whole entry): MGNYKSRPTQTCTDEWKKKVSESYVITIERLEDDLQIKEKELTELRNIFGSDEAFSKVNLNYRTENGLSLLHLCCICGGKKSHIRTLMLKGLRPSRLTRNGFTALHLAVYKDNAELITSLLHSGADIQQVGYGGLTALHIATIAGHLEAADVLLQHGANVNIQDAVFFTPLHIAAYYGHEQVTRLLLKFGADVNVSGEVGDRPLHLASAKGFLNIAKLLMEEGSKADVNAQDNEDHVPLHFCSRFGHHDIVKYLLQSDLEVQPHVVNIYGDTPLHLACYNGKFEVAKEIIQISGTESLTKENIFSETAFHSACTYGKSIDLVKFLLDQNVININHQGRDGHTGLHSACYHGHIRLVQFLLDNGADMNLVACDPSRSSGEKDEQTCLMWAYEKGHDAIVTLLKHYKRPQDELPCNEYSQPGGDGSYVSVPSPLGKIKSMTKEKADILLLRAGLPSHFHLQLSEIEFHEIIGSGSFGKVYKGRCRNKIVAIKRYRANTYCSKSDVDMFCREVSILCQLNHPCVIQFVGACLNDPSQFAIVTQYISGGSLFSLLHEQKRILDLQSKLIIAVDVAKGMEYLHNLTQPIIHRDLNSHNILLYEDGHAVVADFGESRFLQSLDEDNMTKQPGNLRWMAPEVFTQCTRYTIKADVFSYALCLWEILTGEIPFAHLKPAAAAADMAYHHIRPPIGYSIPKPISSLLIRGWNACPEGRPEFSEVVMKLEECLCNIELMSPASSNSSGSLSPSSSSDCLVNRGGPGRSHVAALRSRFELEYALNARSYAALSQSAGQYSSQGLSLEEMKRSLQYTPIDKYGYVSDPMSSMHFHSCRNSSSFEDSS
Sequence of MEK4 (P45985 whole entry): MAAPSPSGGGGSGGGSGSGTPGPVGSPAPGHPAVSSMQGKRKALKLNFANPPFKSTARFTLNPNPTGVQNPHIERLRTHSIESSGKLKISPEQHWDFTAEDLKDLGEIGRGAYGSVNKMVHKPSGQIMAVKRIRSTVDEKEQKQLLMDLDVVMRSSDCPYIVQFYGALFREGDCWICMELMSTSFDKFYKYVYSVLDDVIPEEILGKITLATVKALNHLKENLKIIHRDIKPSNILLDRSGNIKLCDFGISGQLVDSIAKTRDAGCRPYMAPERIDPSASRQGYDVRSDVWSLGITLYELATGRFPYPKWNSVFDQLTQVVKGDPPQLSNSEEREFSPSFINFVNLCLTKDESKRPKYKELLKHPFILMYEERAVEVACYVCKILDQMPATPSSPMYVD
Sequence of EGFR (P00533 25-1210): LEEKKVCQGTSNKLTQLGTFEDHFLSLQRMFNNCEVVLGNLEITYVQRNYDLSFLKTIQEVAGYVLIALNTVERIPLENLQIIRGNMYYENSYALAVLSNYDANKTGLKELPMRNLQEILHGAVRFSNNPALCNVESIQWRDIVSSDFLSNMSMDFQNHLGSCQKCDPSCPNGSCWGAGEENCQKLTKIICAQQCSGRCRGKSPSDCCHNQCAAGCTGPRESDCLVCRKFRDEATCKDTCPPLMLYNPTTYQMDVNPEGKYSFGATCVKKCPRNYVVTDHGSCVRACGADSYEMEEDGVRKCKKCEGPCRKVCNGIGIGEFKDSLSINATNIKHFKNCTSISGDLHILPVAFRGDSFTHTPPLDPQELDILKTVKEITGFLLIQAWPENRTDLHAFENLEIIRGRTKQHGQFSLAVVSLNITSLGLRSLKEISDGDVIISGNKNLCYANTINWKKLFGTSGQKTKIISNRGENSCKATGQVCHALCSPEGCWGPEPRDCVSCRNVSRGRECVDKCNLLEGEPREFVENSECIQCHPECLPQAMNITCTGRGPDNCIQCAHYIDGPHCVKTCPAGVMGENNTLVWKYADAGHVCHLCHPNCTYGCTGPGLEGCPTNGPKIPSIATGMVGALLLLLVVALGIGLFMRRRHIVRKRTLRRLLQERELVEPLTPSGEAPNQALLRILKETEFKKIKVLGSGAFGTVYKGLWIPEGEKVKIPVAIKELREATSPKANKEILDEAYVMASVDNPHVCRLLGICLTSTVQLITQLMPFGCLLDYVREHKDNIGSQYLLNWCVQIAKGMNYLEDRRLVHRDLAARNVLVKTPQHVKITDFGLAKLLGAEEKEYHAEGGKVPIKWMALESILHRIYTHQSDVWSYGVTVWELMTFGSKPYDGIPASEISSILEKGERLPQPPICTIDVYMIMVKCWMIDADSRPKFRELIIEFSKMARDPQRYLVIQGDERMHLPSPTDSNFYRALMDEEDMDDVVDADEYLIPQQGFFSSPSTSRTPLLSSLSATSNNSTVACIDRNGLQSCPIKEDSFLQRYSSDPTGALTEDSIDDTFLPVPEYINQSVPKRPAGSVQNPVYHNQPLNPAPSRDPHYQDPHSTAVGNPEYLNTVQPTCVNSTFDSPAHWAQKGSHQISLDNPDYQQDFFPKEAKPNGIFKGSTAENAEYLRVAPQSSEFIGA
Sequence of ABL1-nonphosphorylated (P00519 whole entry): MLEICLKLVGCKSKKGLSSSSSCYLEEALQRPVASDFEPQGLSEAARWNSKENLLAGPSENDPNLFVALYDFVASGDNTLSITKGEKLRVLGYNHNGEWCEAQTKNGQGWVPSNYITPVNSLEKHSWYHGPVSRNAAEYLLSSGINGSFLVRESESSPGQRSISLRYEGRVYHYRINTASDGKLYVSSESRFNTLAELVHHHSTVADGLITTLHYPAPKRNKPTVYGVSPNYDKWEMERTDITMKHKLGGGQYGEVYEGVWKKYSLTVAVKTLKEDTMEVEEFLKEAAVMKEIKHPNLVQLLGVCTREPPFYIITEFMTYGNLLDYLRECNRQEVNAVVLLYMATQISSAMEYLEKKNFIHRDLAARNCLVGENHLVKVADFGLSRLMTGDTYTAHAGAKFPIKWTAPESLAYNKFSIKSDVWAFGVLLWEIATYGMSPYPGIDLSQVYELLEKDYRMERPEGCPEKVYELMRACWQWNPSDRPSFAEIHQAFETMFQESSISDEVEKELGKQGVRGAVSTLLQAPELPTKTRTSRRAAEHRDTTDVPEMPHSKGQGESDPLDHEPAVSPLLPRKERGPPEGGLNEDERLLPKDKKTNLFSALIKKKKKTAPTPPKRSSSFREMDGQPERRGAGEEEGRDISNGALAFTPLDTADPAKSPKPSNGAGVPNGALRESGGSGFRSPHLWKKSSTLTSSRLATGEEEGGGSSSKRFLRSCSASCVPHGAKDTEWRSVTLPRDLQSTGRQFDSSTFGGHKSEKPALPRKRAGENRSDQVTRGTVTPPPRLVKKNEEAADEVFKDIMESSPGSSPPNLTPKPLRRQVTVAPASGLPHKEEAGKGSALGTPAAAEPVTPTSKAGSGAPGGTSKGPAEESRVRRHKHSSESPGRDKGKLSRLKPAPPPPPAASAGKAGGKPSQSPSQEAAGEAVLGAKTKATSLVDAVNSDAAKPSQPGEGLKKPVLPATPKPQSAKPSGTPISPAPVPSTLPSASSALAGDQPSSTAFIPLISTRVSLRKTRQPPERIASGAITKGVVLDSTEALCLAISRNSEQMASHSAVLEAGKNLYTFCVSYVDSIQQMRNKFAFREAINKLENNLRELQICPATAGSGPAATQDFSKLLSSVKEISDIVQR
Sequence of ABL1(F317L)-phosphorylated (P00519 whole entry F317L): as the sequence (P00519 whole entry) above, with F317L counted along it

Structure (SMILES)	remaining binding at 10 µM [1] [%]	remaining binding at 10 µM [2] [%]	remaining binding at 10 µM [3] [%]	remaining binding at 10 µM [4] [%]	remaining binding at 10 µM [5] [%]	remaining binding at 10 µM [6] [%]	remaining binding at 10 µM [7] [%]	remaining binding at 10 µM [8] [%]	remaining binding at 10 µM [9] [%]	remaining binding at 10 µM [10] [%]	remaining binding at 10 µM [12] [%]	remaining binding at 10 µM [13] [%]	remaining binding at 10 µM [14] [%]	remaining binding at 10 µM [15] [%]	remaining binding at 10 µM [16] [%]	remaining binding at 10 µM [17] [%]	remaining binding at 10 µM [18] [%]	remaining binding at 10 µM [19] [%]	remaining binding at 10 µM [20] [%]	remaining binding at 10 µM [21] [%]	also measured
COc1cc(N2CCC(N3CCN(C)CC3)CC2)ccc1Nc1ncc2c(n1)N(C)c1sc(C)nc1C(=O)N2 [Compound 3, 6-((2-methoxy-4-(4-(4-methylpiperazin-1-yl)piperidin-1-yl)phenyl)amino)-2,4-dimethyl-4,9-dihydro-10H-pyrimido[5,4-b]thiazolo[5,4-e][1,4]diazepin-10-one]	73	100	84	96	97	94	100	100	90	73	100	72	74	100	78	76	90	79	25	96	remaining binding at 10 µM ([11]; KIT(V5S9D, V654A)): 108%; remaining binding at 10 µM [22]: 100%; remaining binding at 10 µM [23]: 62%; remaining binding at 10 µM [24]: 100%; remaining binding at 10 µM [25]: 92%; remaining binding at 10 µM [26]: 98%; remaining binding at 10 µM [27]: 76%; remaining binding at 10 µM [28]: 82%; remaining binding at 10 µM [29]: 10%; remaining binding at 10 µM [30]: 97%; remaining binding at 10 µM [31]: 100%; remaining binding at 10 µM [32]: 54%; remaining binding at 10 µM [33]: 100%; remaining binding at 10 µM [34]: 86%; remaining binding at 10 µM [35]: 96%
COc1cc(N2CCC(N3CCN(C)CC3)CC2)ccc1Nc1ncc2c(n1)N(C)c1sc(C)nc1C(=O)N2C [Compound 5, 6-((2-methoxy-4-(4-(4-methylpiperazin-1-yl)piperidin-1-yl)phenyl)amino)-2,4,9-trimethyl-4,9-dihydro-10H-pyrimido[5,4-b]thiazolo[5,4-e][1,4]diazepin-10-one]	97	73	100	99	87	100	100	89	100	100	93	100	100	92	100	100	100	88	77	81	remaining binding at 10 µM ([11]; KIT(V559D, V654A)): 100%; remaining binding at 10 µM [22]: 92%; remaining binding at 10 µM [23]: 97%; remaining binding at 10 µM [24]: 97%; remaining binding at 10 µM [25]: 100%; remaining binding at 10 µM [26]: 96%; remaining binding at 10 µM [27]: 91%; remaining binding at 10 µM [28]: 100%; remaining binding at 10 µM [29]: 39%; remaining binding at 10 µM [30]: 88%; remaining binding at 10 µM [31]: 100%; remaining binding at 10 µM [32]: 100%; remaining binding at 10 µM [33]: 100%; remaining binding at 10 µM [34]: 75%; remaining binding at 10 µM [35]: 89%
